Test results taken from DBAASP.
Converted amounts (≈) assume the structure as drawn.

Columns and labels:
Assay in all cases: ≥ marks a high value that may be exact or a test limit, other limits are often not marked, values filed in µg/mL are converted to µM
[1] = test system: Staphylococcus aureus KCTC 1621
[2] = test system: Bacillus subtilis KCTC 1918
[3] = test system: Trichosporon beigelii KCTC 7251
[4] = test system: Escherichia coli KCTC 1682
[5] = test system: Fusarium oxysporum KCTC 6084
[6] = test system: Bacillus megaterium KCTC 1096
[7] = test system: Proteus vulgaris
[8] = test system: Candida albicans KCTC 7121
[9] = test system: Aspergillus flavus KCTC 7375
[10] = test system: Pseudomonas aeruginosa KCTC 1637
[11] = test system: Micrococcus luteus ATCC 10240
[12] = test system: Escherichia coli BL21AI
[13] = test system: Micrococcus luteus ATCC 9341
[14] = test system: Staphylococcus aureus IFO 12732
[15] = test system: Bacillus subtilis IFO 3513
[16] = test system: Escherichia coli IFO 12734
[17] = test system: Salmonella typhimurium KCTC 1926
[18] = test system: Streptococcus pyogenes KCTC 3096
[19] = test system: Candida albicans
[20] = test system: Staphylococcus aureus ATCC 49476
[21] = test system: Staphylococcus aureus MR
[22] = test system: Pseudomonas aeruginosa ATCC 27853
[23] = test system: Staphylococcus aureus VRSA1
[24] = test system: Micrococcus luteus CCM 144
[25] = test system: Bacillus subtilis 168
[26] = test system: Staphylococcus aureus MU50
[27] = test system: Bacillus subtilis KCTC 3068
[28] = test system: Staphylococcus aureus KCTC 1916
[29] = test system: Staphylococcus epidermidis KCTC 1917

For CC[C@H](C)[C@H](NC(=O)[C@H](CCCCN)NC(=O)[C@H](CCCCN)NC(=O)[C@H](Cc1ccccc1)NC(=O)[C@@H](N)Cc1c[nH]c2ccccc12)C(=O)N1CCC[C@H]1C(=O)N[C@@H](CCCCN)C(=O)N[C@@H](Cc1ccccc1)C(=O)N[C@@H](CC(C)C)C(=O)N[C@@H](Cc1cnc[nH]1)C(=O)N[C@@H](CC(C)C)C(=O)N[C@@H](C)C(=O)N[C@@H](CCCCN)C(=O)N[C@@H](CCCCN)C(=O)N[C@@H](Cc1ccccc1)C(N)=O [WFKKIPKFLHLAKKF], the MIC [1] was 3.12 µM (≈ 6.03 µg/mL), the MIC [2] was 0.78 µM (≈ 1.51 µg/mL) and the MIC [3] was no less than 100 µM. For the same compound, the MIC [4] was 12.5 µM (≈ 24.1 µg/mL), the MIC [5] was no less than 100 µM and the MIC [6] was 1.56 µM (≈ 3.01 µg/mL). For the same compound, the MIC [7] was 1.56 µM (≈ 3.01 µg/mL), the MIC [8] was no less than 100 µM and the MIC [9] was no less than 100 µM. For the same compound, the MIC [10] was 1.56 µM (≈ 3.01 µg/mL).

For CC[C@H](C)[C@H](NC(=O)[C@H](CCCN=C(N)N)NC(=O)[C@@H]1CCCN1C(=O)[C@H](Cc1cnc[nH]1)NC(=O)[C@@H]1CCCN1C(=O)[C@@H]1CCCN1C(=O)[C@H](CCCN=C(N)N)NC(=O)[C@@H]1CCCN1C(=O)[C@H](CCC(N)=O)NC(=O)[C@@H]1CCCN1C(=O)[C@@H](NC(=O)[C@H](Cc1ccc(O)cc1)NC(=O)[C@@H](NC(=O)[C@@H]1CCCN1C(=O)[C@H](CCCN=C(N)N)NC(=O)[C@H](CC(N)=O)NC(=O)[C@@H](N)CC(N)=O)C(C)C)[C@@H](C)CC)C(N)=O [NNRPVYIPQPRPPHPRI], the MIC [11] was 15.2 µM (≈ 31.2 µg/mL) and the MIC [12] was 1.91 µM (≈ 3.91 µg/mL).

CC[C@H](C)[C@H](N)C(=O)N[C@@H](CC(C)C)C(=O)N1CCC[C@H]1C(=O)N[C@@H](CC(C)C)C(=O)N[C@@H](CCCCN)C(=O)N[C@@H](CC(C)C)C(=O)N1CCC[C@H]1C(=O)N[C@@H](CC(C)C)C(=O)N[C@@H](CC(C)C)C(=O)N1CCC[C@H]1C(=O)N[C@@H](CC(C)C)C(=O)N[C@@H](CCCN=C(N)N)C(=O)N[C@@H](CCCN=C(N)N)C(N)=O [ILPLKLPLLPLRR] was tested, and the MIC [13] was 25 µM (≈ 38.5 µg/mL), the MIC [14] was 2.03 µM (≈ 3.13 µg/mL) and the MIC [15] was 4.05 µM (≈ 6.25 µg/mL). For the same compound, the MIC [16] was 16.2 µM (≈ 25 µg/mL).

Compound CC[C@H](C)[C@H](NC(=O)[C@H](CC(C)C)NC(=O)[C@@H]1CCCN1C(=O)[C@H](Cc1c[nH]c2ccccc12)NC(=O)[C@H](CCCCN)NC(=O)[C@H](CCCCN)NC(=O)[C@@H]1CCCN1C(=O)[C@H](CCCCN)NC(=O)[C@H](CC(C)C)NC(=O)[C@@H]1CCCN1C(=O)[C@H](Cc1c[nH]c2ccccc12)NC(=O)[C@H](CCCN=C(N)N)NC(=O)[C@@H](N)CCCN=C(N)N)C(N)=O [RRWPLKPKKWPLI] has an MIC [14] of 7.28 µM (≈ 12.5 µg/mL), an MIC [15] of 7.28 µM (≈ 12.5 µg/mL) and an MIC [16] of 29.1 µM (≈ 50 µg/mL).

For CC[C@H](C)[C@H](NC(=O)[C@@H](NC(=O)[C@@H](N)CCCN=C(N)N)[C@@H](C)CC)C(=O)N[C@@H](CC(=O)O)C(=O)N[C@@H](CC(C)C)C(=O)N[C@@H](CC(C)C)C(=O)N[C@@H](C)C(=O)N[C@@H](CCCN=C(N)N)C(=O)N[C@H](C(=O)N[C@@H](CCCN=C(N)N)C(=O)N[C@@H](CCCN=C(N)N)C(=O)N1CCC[C@H]1C(=O)N[C@@H](CCC(N)=O)C(=O)N[C@@H](CCCCN)C(=O)N1CCC[C@H]1C(=O)N[C@@H](CCCCN)C(=O)N[C@@H](Cc1ccccc1)C(=O)N[C@H](C(=O)N[C@H](C(=O)N[C@H](C(=O)N[C@@H](Cc1c[nH]c2ccccc12)C(=O)N[C@H](C(=O)N[C@@H](CCCN=C(N)N)C(=O)O)C(C)C)C(C)C)[C@@H](C)O)C(C)C)C(C)C [RIIDLLARVRRPQKPKFVTVWVR], the MIC [17] was 1.56 µM (≈ 4.44 µg/mL), the MIC [1] was 3.12 µM (≈ 8.9 µg/mL) and the MIC [2] was 1.56 µM (≈ 4.44 µg/mL). It also gave an MIC [18] of 1.56 µM (≈ 4.44 µg/mL), an MIC [4] of 3.12 µM (≈ 8.9 µg/mL) and an MIC [10] of 1.56 µM (≈ 4.44 µg/mL).

With CC[C@H](C)[C@H](NC(=O)[C@H](Cc1cnc[nH]1)NC(=O)[C@H](CCCCN)NC(=O)CNC(=O)[C@@H](NC(=O)[C@H](CO)NC(=O)[C@H](Cc1ccccc1)NC(=O)[C@H](CC(C)C)NC(=O)CNC(=O)CNC(=O)[C@@H](NC(=O)[C@@H](NC(=O)[C@H](Cc1cnc[nH]1)NC(=O)[C@H](Cc1cnc[nH]1)NC(=O)[C@@H](NC(=O)[C@@H](N)Cc1ccccc1)[C@@H](C)CC)[C@@H](C)CC)[C@@H](C)CC)C(C)C)C(=O)N[C@@H](Cc1cnc[nH]1)C(=O)N[C@@H](CO)C(=O)N[C@@H](CC(C)C)C(=O)N[C@H](C(=O)N[C@@H](Cc1cnc[nH]1)C(=O)N[C@@H](CCCN=C(N)N)C(=O)N[C@@H](CCCN=C(N)N)C(=O)N[C@@H](CCCN=C(N)N)C(=O)N[C@@H](CCCN=C(N)N)C(=O)O)[C@@H](C)CC [FIHHIIGGLFSVGKHIHSLIHRRRR] the MIC [19] was 42.8 µM (≈ 128 µg/mL), the MIC [20] was 5.36 µM (≈ 16 µg/mL) and the MIC [21] was 5.36 µM (≈ 16 µg/mL). For the same compound, the MIC [22] was greater than 171 µM.

Compound CC[C@H](C)[C@H](NC(=O)[C@H](CCCCN)NC(=O)[C@H](CCCCN)NC(=O)[C@@H](N)Cc1c[nH]c2ccccc12)C(=O)N1CCC[C@H]1C(=O)N[C@@H](CCCCN)C(=O)N[C@@H](Cc1ccccc1)C(=O)N[C@@H](CC(C)C)C(=O)N[C@@H](Cc1cnc[nH]1)C(=O)N[C@@H](CC(C)C)C(=O)N[C@@H](C)C(=O)N[C@@H](CCCCN)C(=O)N[C@@H](CCCCN)C(=O)N[C@@H](Cc1ccccc1)C(N)=O [WKKIPKFLHLAKKF] has an MIC [1] of 3.12 µM (≈ 5.57 µg/mL), an MIC [2] of 0.78 µM (≈ 1.39 µg/mL) and an MIC [3] of no less than 200 µM. The MIC [4] was 12.5 µM (≈ 22.3 µg/mL), the MIC [5] was no less than 200 µM and the MIC [6] was 1.56 µM (≈ 2.78 µg/mL). For the same compound, the MIC [7] was 3.12 µM (≈ 5.57 µg/mL), the MIC [8] was no less than 200 µM and the MIC [9] was no less than 200 µM. The MIC [10] was 3.12 µM (≈ 5.57 µg/mL).

With CC[C@H](C)[C@@H]1NC(=O)[C@@H]2CSSC[C@@H]3NC(=O)[C@H](CCCCN)NC(=O)[C@H](CC(=O)O)NC(=O)[C@H](CCC(N)=O)NC(=O)[C@H](Cc4ccccc4)NC(=O)[C@H](Cc4ccccc4)NC(=O)[C@@H]4CCCN4C(=O)[C@@H](NC(=O)[C@H](Cc4ccc(O)cc4)NC(=O)[C@H](Cc4ccc(O)cc4)NC(=O)CNC(=O)CN)CSSC[C@H](NC(=O)[C@H](Cc4ccc(O)cc4)NC(=O)CNC(=O)[C@H](C)NC(=O)[C@H](CCCCN)NC(=O)[C@H](CCCN=C(N)N)NC(=O)CNC(=O)[C@H](Cc4ccccc4)NC(=O)[C@H](CO)NC(=O)[C@H](CCCN=C(N)N)NC(=O)[C@H](CSSC[C@@H](C(=O)N[C@H](C(=O)O)C(C)C)NC1=O)NC(=O)[C@H](Cc1cnc[nH]1)NC(=O)[C@H](CCCN=C(N)N)NC(=O)[C@H](Cc1cnc[nH]1)NC3=O)C(=O)NCC(=O)NCC(=O)N[C@@H](Cc1ccccc1)C(=O)N[C@@H](CC(C)C)C(=O)N[C@@H](CCCCN)C(=O)N[C@@H](CCCCN)C(=O)N[C@@H]([C@@H](C)O)C(=O)N2 [GGYYCPFFQDKCHRHCRSFGRKAGYCGGFLKKTCICV] the MIC [23] was 7.55 µM (≈ 32 µg/mL), the MIC [24] was 0.75 µM (≈ 3.17 µg/mL) and the MIC [25] was 1.5 µM (≈ 6.35 µg/mL). It also gave an MIC [26] of 7.55 µM (≈ 32 µg/mL) and an MIC [21] of 3.78 µM (≈ 16 µg/mL).

For CC[C@H](C)[C@H](NC(=O)[C@H](CCCN=C(N)N)NC(=O)[C@H](CC(C)C)NC(=O)[C@H](CCC(N)=O)NC(=O)[C@H](CCCCN)NC(=O)[C@H](CC(C)C)NC(=O)[C@H](CC(C)C)NC(=O)[C@H](CC(C)C)NC(=O)[C@@H](NC(=O)[C@H](CCCCN)NC(=O)[C@H](CC(=O)O)NC(=O)[C@H](C)NC(=O)[C@@H](NC(=O)[C@H](CCCCN)NC(=O)[C@@H](N)CCCCN)C(C)C)C(C)C)C(=O)N[C@@H](CCSC)C(=O)N[C@@H](CCCN=C(N)N)C(=O)N[C@@H](CC(C)C)C(=O)O [KKVADKVLLLKQLRIMRL], the MIC [17] was no less than 64 µM, the MIC [27] was 2 µM (≈ 4.33 µg/mL) and the MIC [4] was 16 µM (≈ 34.7 µg/mL). The MIC [28] was 8 µM (≈ 17.3 µg/mL), the MIC [29] was no less than 32 µM and the MIC [10] was no less than 32 µM.
